Test results taken from paper PMC12508057, “Discovery of ETI41 and ETI60: novel selective endosomal Toll-like receptor inhibitors for the treatment of autoimmune diseases” (Experimental & Molecular Medicine, 2025).
Like-named read-outs stand apart in the source and are kept apart here.

Legend:
murine TLR9 = molecular target: T1, murine TLR9 (Mus musculus, UniProt Q9EQU3); experiment: SPR binding to TLR9
T1 construct: Fc; purchased R&D Systems
Experimental: Surface plasmon resonance (SPR) analysis was conducted using an SR7500DC SPR System (Reichert) with a CMDH chip for human TLR7 and murine TLR9 (R&D Systems) and a Biacore T200 platform (Cytiva) with a CM5 chip for TLR9–ODN binding. The running buffer contained 0.5% DMSO and phosphate-buffered saline, and 50 mM NaOH was used for regeneration. ETI series compounds were serially diluted from 500 μM and tested for binding affinity. Binding curves were analyzed using Scrubber2 and Biacore T200 evaluation softwares. The dissociation constants (KD) were calculated as KD = kd/ka.
SPR confirmed the binding mechanisms of ETI41 and ETI60 with TLR7 and TLR9, respectively, under three conditions: (a) early endosome (pH 7.4), (b) late endosome without CpG (pH 5.5) and (c) late endosome with CpG (pH 5.5). (a) Both ETI41 and ETI60 were measured for parameters indicating binding affinity, including the KD value presented in Table 3, and were further analyzed under conditions (b) and (c), depending on the presence or absence of ligand, to explain the binding mechanism occurring in TLR9.

IMQ-induced psoriasis = IMQ-induced psoriasis in mice; type: in vivo, mouse; settings: 60 mg/kg oral daily
Experimental: Six-week-old female C57BL/6J mice were assigned to the following treatment groups: vehicle (n = 5), IMQ (n = 5), ETI41 (n = 4) and ETI60 (n = 5). The mice were obtained from Orient Bio to evaluate the effects of ETI41 and ETI60 on induced psoriasis-like symptoms. This study was approved by the Institutional Animal Care and Use Committee (IACUC; approval no. 2014-0007). Psoriasis was induced using Aldara cream (3M Pharmaceuticals), which was applied topically at 62.5 mg/cm² daily from the day after hair removal until the fourth day. Mice were orally administered 60 mg/kg ETI41 or ETI60 daily commencing on the second day of induction. For IL-23-induced psoriasis, the mice were assigned to the following treatment groups: vehicle (n = 5), IL-23 (n = 5), ETI41 (n = 5), ETI60 (n = 5) and anti-IL-17 Ab (n = 5). Recombinant mouse IL-23 (0.25 mg/kg; BioLegend) was administered via intradermal injection around the ear daily, starting the day after hair removal and continuing until the eighth day. Positive control mice received intraperitoneal (IP) injections of 30 mg/kg anti-mouse IL-17A antibody (BioLegend) on days 2, 5 and 8, while test group mice were administered daily oral doses of 60 mg/kg of ETI41 or ETI60. Changes in body weight and Psoriasis Area and Severity Index (PASI) scores (erythema, scaling and thickness) were recorded daily. Mice were initially anesthetized in an induction chamber with a gas mixture of 4% isoflurane in 70:30 […] and O2, delivered at a flow rate of 0.8 l/min. Subsequently, the isoflurane concentration was reduced to 2%, and the mice were euthanized under anesthesia via endotracheal intubation. Skin samples were collected, fixed and stained with hematoxylin and eosin for histological analysis. Dermal and epidermal thicknesses were measured using a Leica DMi8 microscope (Leica). Immunohistochemical analyses were performed using primary antibodies against CD68 (R&D Systems, MAB101141), Ki-67 (Cell Signaling Technology, 12202), IL-17A (Novus Biologicals, NBP1-72027) and IL-23 (Novus Biologicals, NBP1-76697), followed by detection using biotinylated secondary antibodies (Vector Laboratories) and diaminobenzidine (Vector Laboratories) visualization. Fluorescence measurements for IL-23-induced psoriasis were performed using primary antibodies against CD68 and Ki-67, followed by Alexa Fluor-conjugated secondary antibodies (Life Technologies). Fluorescence was analyzed using a Leica DMi8 microscope.
Anti-IL17A antibody (Ab, 60 µg) was administered by IP injection as a positive control on days 2, 5 and 8. […] CD68 and Ki-67 expression patterns were determined in skin sections from a representative of each group using immunofluorescence. i Ear skin and epidermis thickness, CD68 expression and percentage of Ki-67 cells were examined from 4’,6-diamidino-2-phenylindole-stained cells. Statistical differences between the induced case and other cases were analyzed and verified using a one-tailed Student’s t-test (*P < 0.05, **P < 0.01, ***P < 0.001).

TLR1/TLR2 = experiment: Surface TLR specificity, TNF-α secretion in differentiated THP-1; type: cell-based, human; settings: 2 and 5 μM, differentiated THP-1, FSL-1
Experimental: (§1) RAW 264.7 and differentiated THP-1 cells were seeded into 96-well plates at 2 × 10^4 cells per well, while Daudi cells were seeded at 5 × 10^4 cells per well. After stabilization for 30 min, cells were stimulated with specific TLR agonists for 4 or 24 h. Supernatants were diluted and transferred to precoated ELISA plates to measure TNF-α secretion using kits from Invitrogen. Optical absorbance was measured using a BioTek Synergy HTX multimode microplate reader, and data were interpolated using BioTek Gen5 software.
(§2) The cells were activated with agonistic ligands: […], TLR3 (poly I:C, 2 μg/ml, 24 h), TLR4 (LPS, 10 or 100 ng/ml, 4 h), TLR5 (FLA-ST, 500 ng/ml, 4 h), TLR7 (ORN06/LyoVec, 2 μg/ml, 24 h; and IMQ, 1 μg/ml, 4 h), TLR8 (TL8-506, 2 μg/ml, 24 h) and TLR9 (ODN2395, 1 μM, 4 h) at various concentrations in RAW 264.7 cells, human Daudi cells and THP-1 cells. Data are from at least three independent experiments (n = 3) and statistical differences between the induced case and other cases were analyzed and verified using a one-tailed Student’s t-test (*P < 0.05, **P < 0.01, ***P < 0.001).
(§3) Given the structural similarities among TLR family proteins, achieving high selectivity is challenging. We tested the effects of ETI41 and ETI60 on various surface TLRs to determine their specificity. […] TLRs activate transcription factors, including NF-κB, MAPKs, c-Jun N-terminal kinase (JNK), extracellular signal-regulated kinase (ERK) and IRF7, which regulate cellular functions such as proliferation and apoptosis. Western blot analysis confirmed that ETI41 and ETI60 inhibited IMQ- or ODN2395-induced phosphorylation of MAPKs (p-ERK, p-JNK and p-p38), nuclear translocation of the NF-κB p65 subunit, Iκ-Bα degradation and IRF7 expression in RAW 264.7 cells (Fig. 2a–c and Supplementary Figs. 2 and 3).

TLR2/TLR6 = experiment: as above; type: cell-based, human; settings: 2 and 5 μM, differentiated THP-1, Pam3CSK4
Experimental: as §1, §2, §3

[1] = acidic pH 5.5 (late endosome), without or with CpG
[2] = neutral pH 7.4 (early endosome)

T1 sequence (Q9EQU3 with tags, fused parts or gaps limits assumed): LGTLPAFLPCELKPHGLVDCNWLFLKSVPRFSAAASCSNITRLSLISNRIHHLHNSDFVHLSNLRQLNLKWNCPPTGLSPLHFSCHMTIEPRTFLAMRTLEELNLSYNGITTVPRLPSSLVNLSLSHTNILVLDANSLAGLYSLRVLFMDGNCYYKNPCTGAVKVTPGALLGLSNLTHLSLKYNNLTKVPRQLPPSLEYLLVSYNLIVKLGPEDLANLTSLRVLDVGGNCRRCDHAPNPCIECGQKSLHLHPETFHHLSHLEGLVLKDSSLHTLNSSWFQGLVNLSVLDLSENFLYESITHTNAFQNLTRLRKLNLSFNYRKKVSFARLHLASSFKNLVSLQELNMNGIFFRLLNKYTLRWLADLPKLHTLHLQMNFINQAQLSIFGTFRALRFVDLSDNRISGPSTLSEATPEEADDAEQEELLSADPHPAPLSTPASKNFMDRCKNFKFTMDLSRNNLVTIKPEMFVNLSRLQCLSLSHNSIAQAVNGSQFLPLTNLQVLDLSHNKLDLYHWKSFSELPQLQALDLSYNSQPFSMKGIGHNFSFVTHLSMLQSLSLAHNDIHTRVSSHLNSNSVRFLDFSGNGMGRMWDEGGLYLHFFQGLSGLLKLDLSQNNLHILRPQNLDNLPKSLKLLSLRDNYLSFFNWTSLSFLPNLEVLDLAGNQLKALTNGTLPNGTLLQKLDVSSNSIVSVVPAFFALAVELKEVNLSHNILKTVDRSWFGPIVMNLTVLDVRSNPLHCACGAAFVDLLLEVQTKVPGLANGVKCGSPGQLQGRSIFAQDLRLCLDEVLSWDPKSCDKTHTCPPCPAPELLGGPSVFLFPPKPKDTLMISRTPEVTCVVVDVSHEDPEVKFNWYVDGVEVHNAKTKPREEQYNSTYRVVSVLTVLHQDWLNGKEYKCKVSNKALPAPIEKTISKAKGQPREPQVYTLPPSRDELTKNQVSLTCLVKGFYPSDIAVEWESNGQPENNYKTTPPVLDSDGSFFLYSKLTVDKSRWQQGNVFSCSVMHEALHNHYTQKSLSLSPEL

Row | SMILES | kd (murine TLR9; Fc-TLR9, pH 7.4) [s⁻¹] | SPR binding to TLR9 (murine TLR9; [1]) | SPR binding to TLR9 (murine TLR9; [2]) | kon (murine TLR9; pH 7.4, read-out: ka) [M⁻¹ s⁻¹] | Dermal inflammatory cell infiltration (IMQ-induced psoriasis) | Dermal thickness (IMQ-induced psoriasis) | Epidermal acanthosis (IMQ-induced psoriasis) | IL-17A and IL-23 expression (IMQ-induced psoriasis) | Keratinocyte proliferation (IMQ-induced psoriasis) | PASI scores (IMQ-induced psoriasis) | Inhibition of TLR1/TLR2 (TNF-α secretion) (TLR1/TLR2) | Inhibition of TLR2/TLR6 (TNF-α secretion) (TLR2/TLR6) | Kd (murine TLR9; Fc-TLR9, pH 7.4) [µM] | kon (murine TLR9; Fc-TLR9, pH 7.4, read-out: ka) [M⁻¹ s⁻¹]
1 | Cc1cc2c(N)c3c(nc2n1CCCN(C)C)CCCCCC3 [ETI41] | 0.191 | binding was detected only in the late endosomal state where the natural ligand is present | clear binding affinity | 10 | inhibited | significantly reduced | significantly reduced | inhibited | significantly reduced | significantly reduced | neither compound inhibited | neither compound inhibited |  | 
2 | COc1ccc2c3c(N)c4c(nc3n(CCCN(C)C)c2c1)CCCC4 [ETI60] | 0.106 | binding was detected only in the late endosomal state where the natural ligand is present | clear binding affinity |  | inhibited | significantly reduced | significantly reduced | inhibited | significantly reduced | significantly reduced | neither compound inhibited | neither compound inhibited | 1500 | 71
